Measurements from patent publication US11771738B2 (Zoetis Services LLC, priority 2018, dated 2023).
Read-outs that look alike come from different tables or passages of the source.

How the values were obtained:
Format in all cases: cell-based
[1] = test system: microfilariae of Dirofilaria immitis; assay: Dirofilaria immitis, Microfilaria (DiMf) In Vitro Assay; conditions: Dirofilaria immitis, 72 h, read-out: DiMf MED, Minimum Effective Dose, D. immitis microfilariae motility, in vitro
[2] = test system: D. immitis L4 larvae; assay: Dirofilaria immitis, L4 Stage (DiL4) In Vitro Assay; conditions: for minimal effective concentration: Dirofilaria immitis, 72 h, read-out: DiL4 MED, Minimum Effective Dose, D. immitis L4 larvae motility, in vitro; for DiMf/DiL4: larval stage selectivity, ratio of DiMf MED to DiL4 MED
[3] = test system: third stage larvae of Haemonchus contortus; assay: Haemonchus contortus, Larvae Stage 3 (HcL3) In Vitro Assay; conditions: Haemonchus contortus, 96 h
[4] = read-out: HcL3 MED, Minimum Effective Dose, H. contortus third stage larvae, approximately 96 hours
[5] = read-out: HcL3 MED, Haemonchus contortus third stage larvae in vitro, class mark appended to the Ex # in Table 3
[6] = read-out: HcL3 MED, approximately 96 hours incubation, multiple-resistant field isolate

Row | Compound | minimal effective concentration [1] [µM] | minimal effective concentration [2] [µM] | DiMf/DiL4 [2] | minimal effective concentration [3, 4] [µM] | minimal effective concentration [3, 5] [µM] | minimal effective concentration [3, 6] [µM]
1 | CC(C)C[C@H]1C(=O)O[C@H](Cc2ccc(Cc3cccnc3C(F)(F)F)cc2)C(=O)N(C)[C@@H](CC(C)C)C(=O)O[C@H](C)C(=O)N(C)[C@@H](CC(C)C)C(=O)O[C@H](Cc2ccc(Cc3cccnc3C(F)(F)F)cc2)C(=O)N(C)[C@@H](CC(C)C)C(=O)O[C@H](C)C(=O)N1C [Example 3-238, (3S,6R,9S,12R,15S,18R,21S,24R)-3,9,15,21-tetraisobutyl-4,6,10,16,18,22-hexamethyl-12,24-bis(4-((2-(trifluoromethyl)pyridin-3-yl)methyl)benzyl)-1,7,13,19-tetraoxa-4,10,16,22-tetraazacyclotetracosan-2,5,8,11,14,17,20,23-octaone] | 0.002 | 0.0001 | 20 | > 5 | – | –
2 | Cc1ccc(Cc2ccc(C[C@H]3OC(=O)[C@H](CC(C)C)N(C)C(=O)[C@@H](C)OC(=O)[C@H](CC(C)C)N(C)C(=O)[C@@H](Cc4ccc(Cc5ccc(C)nc5C)cc4)OC(=O)[C@H](CC(C)C)N(C)C(=O)[C@@H](C)OC(=O)[C@H](CC(C)C)N(C)C3=O)cc2)c(C)n1 [Example 3-240, (3S,6R,9S,12R,15S,18R,21S,24R)-6,18-bis(4-((2,6-dimethylpyridin-3-yl)methyl)benzyl)-3,9,15,21-tetraisobutyl-4,10,12,16,22,24-hexamethyl-1,7,13,19-tetraoxa-4,10,16,22-tetraazacyclotetracosan-2,5,8,11,14,17,20,23-octaone] | 0.02 | 0.001 | 20 | 5.7 | – | –
3 | Cc1[nH]ncc1Cc1ccc(C[C@H]2OC(=O)[C@H](CC(C)C)N(C)C(=O)[C@@H](C)OC(=O)[C@H](CC(C)C)N(C)C(=O)[C@@H](Cc3ccc(Cc4cn[nH]c4C)cc3)OC(=O)[C@H](CC(C)C)N(C)C(=O)[C@@H](C)OC(=O)[C@H](CC(C)C)N(C)C2=O)cc1 [Example 3-243, (3S,6R,9S,12R,15S,18R,21S,24R)-3,9,15,21-tetraisobutyl-4,6,10,16,18,22-hexamethyl-12,24-bis(4-((5-methyl-1H-pyrazol-4-yl)methyl)benzyl)-1,7,13,19-tetraoxa-4,10,16,22-tetraazacyclotetracosan-2,5,8,11,14,17,20,23-octaone] | 0.001 | 0.001 | 1 | 7.5 | – | –
4 | COc1cnc(C(C)(F)c2ccc(C[C@H]3OC(=O)[C@H](CC(C)C)N(C)C(=O)[C@@H](C)OC(=O)[C@H](CC(C)C)N(C)C(=O)[C@@H](Cc4ccc(C(C)(F)c5cnc(OC)cn5)cc4)OC(=O)[C@H](CC(C)C)N(C)C(=O)[C@@H](C)OC(=O)[C@H](CC(C)C)N(C)C3=O)cc2)cn1 (stereo partly drawn) [Example 3-252, (3S,6R,9S,12R,15S,18R,21S,24R)-6,18-bis(4-(1-fluoro-1-(5-methoxypyrazin-2-yl)ethyl)benzyl)-3,9,15,21-tetraisobutyl-4,10,12,16,22,24-hexamethyl-1,7,13,19-tetraoxa-4,10,16,22-tetraazacyclotetracosan-2,5,8,11,14,17,20,23-octaone] | 0.02 | 0.0007 | 28.6 | > 42 | – | –
5 | CCn1nccc1Cc1ccc(C[C@H]2OC(=O)[C@H](CC(C)C)N(C)C(=O)[C@@H](C)OC(=O)[C@H](CC(C)C)N(C)C(=O)[C@@H](Cc3ccc(Cc4ccnn4CC)cc3)OC(=O)[C@H](CC(C)C)N(C)C(=O)[C@@H](C)OC(=O)[C@H](CC(C)C)N(C)C2=O)cc1 [Example 3-253, (3S,6R,9S,12R,15S,18R,21S,24R)-6,18-bis(4-((1-ethyl-1H-pyrazol-5-yl)methyl)benzyl)-3,9,15,21-tetraisobutyl-4,10,12,16,22,24-hexamethyl-1,7,13,19-tetraoxa-4,10,16,22-tetraazacyclotetracosan-2,5,8,11,14,17,20,23-octaone] | 0.0003 | 0.001 | 0.3 | 1 | < 1 | ≤ 1
6 | CC(C)C[C@H]1C(=O)O[C@H](Cc2ccc(Cc3cnsc3)cc2)C(=O)N(C)[C@@H](CC(C)C)C(=O)O[C@H](C)C(=O)N(C)[C@@H](CC(C)C)C(=O)O[C@H](Cc2ccc(Cc3cnsc3)cc2)C(=O)N(C)[C@@H](CC(C)C)C(=O)O[C@H](C)C(=O)N1C [Example 3-254, (3S,6R,9S,12R,15S,18R,21S,24R)-3,9,15,21-tetraisobutyl-6,18-bis(4-(isothiazol-4-ylmethyl)benzyl)-4,10,12,16,22,24-hexamethyl-1,7,13,19-tetraoxa-4,10,16,22-tetraazacyclotetracosan-2,5,8,11,14,17,20,23-octaone] | 0.003 | 0.001 | 3 | 10 | – | –
7 | COC(c1ccc(C[C@H]2OC(=O)[C@H](CC(C)C)N(C)C(=O)[C@@H](C)OC(=O)[C@H](CC(C)C)N(C)C(=O)[C@@H](Cc3ccc(C(OC)c4ccc(O)nc4)cc3)OC(=O)[C@H](CC(C)C)N(C)C(=O)[C@@H](C)OC(=O)[C@H](CC(C)C)N(C)C2=O)cc1)c1ccc(O)nc1 (stereo partly drawn) [Example 3-259, (3S,6R,9S,12R,15S,18R,21S,24R)-6,18-bis(4-((6-hydroxypyridin-3-yl)(methoxy)methyl)benzyl)-3,9,15,21-tetraisobutyl-4,10,12,16,22,24-hexamethyl-1,7,13,19-tetraoxa-4,10,16,22-tetraazacyclotetracosan-2,5,8,11,14,17,20,23-octaone] | 0.01 | 0.0005 | 20 | 3.3 | 1 to 3.3 | –
8 | COc1ncccc1C(C)c1ccc(C[C@H]2OC(=O)[C@H](CC(C)C)N(C)C(=O)[C@@H](C)OC(=O)[C@H](CC(C)C)N(C)C(=O)[C@@H](Cc3ccc(C(C)c4cccnc4OC)cc3)OC(=O)[C@H](CC(C)C)N(C)C(=O)[C@@H](C)OC(=O)[C@H](CC(C)C)N(C)C2=O)cc1 (stereo partly drawn) [Example 3-261, (3S,6R,9S,12R,15S,18R,21S,24R)-3,9,15,21-tetraisobutyl-6,18-bis(4-(1-(2-methoxypyridin-3-yl)ethyl)benzyl)-4,10,12,16,22,24-hexamethyl-1,7,13,19-tetraoxa-4,10,16,22-tetraazacyclotetracosan-2,5,8,11,14,17,20,23-octaone] | 0.03 | < 0.0001 | >300 | > 100 | – | –
9 | CC(C)C[C@H]1C(=O)O[C@H](Cc2ccc(Cc3ccnn3C3CC3)cc2)C(=O)N(C)[C@@H](CC(C)C)C(=O)O[C@H](C)C(=O)N(C)[C@@H](CC(C)C)C(=O)O[C@H](Cc2ccc(Cc3ccnn3C3CC3)cc2)C(=O)N(C)[C@@H](CC(C)C)C(=O)O[C@H](C)C(=O)N1C [Example 3-268, (3S,6R,9S,12R,15S,18R,21S,24R)-6,18-bis(4-((1-cyclopropyl-1H-pyrazol-5-yl)methyl)benzyl)-3,9,15,21-tetraisobutyl-4,10,12,16,22,24-hexamethyl-1,7,13,19-tetraoxa-4,10,16,22-tetraazacyclotetracosan-2,5,8,11,14,17,20,23-octaone] | 0.002 | 0.0005 | 4 | 1 | < 1 | ≤ 1
10 | Cc1ncccc1Cc1ccc(C[C@@H]2OC(=O)[C@H](CC(C)C)N(C)C(=O)[C@@H](C)OC(=O)[C@@H](CC(C)C)N(C)C(=O)[C@@H](Cc3ccc(Cc4cccnc4C)cc3)OC(=O)[C@@H](CC(C)C)N(C)C(=O)[C@@H](C)OC(=O)[C@H](CC(C)C)N(C)C2=O)cc1 [Example 3-273, (3S,6R,9R,12R,15R,18R,21S,24S)-3,9,15,21-tetraisobutyl-4,6,10,16,18,22-hexamethyl-12,24-bis[[4-[(2-methyl-3-pyridyl)methyl]phenyl]methyl]-1,7,13,19-tetraoxa-4,10,16,22-tetrazacyclotetracosane-2,5,8,11,14,17,20,23-octaone] | 0.002 | 0.0003 | 6.7 | 1 | < 1 | ≤ 1
11 | CC(C)C[C@H]1C(=O)O[C@H](Cc2ccc(Cc3ccnn3CC3CC3)cc2)C(=O)N(C)[C@@H](CC(C)C)C(=O)O[C@H](C)C(=O)N(C)[C@@H](CC(C)C)C(=O)O[C@H](Cc2ccc(Cc3ccnn3CC3CC3)cc2)C(=O)N(C)[C@@H](CC(C)C)C(=O)O[C@H](C)C(=O)N1C [Example 3-275, (3S,6R,9S,12R,15S,18R,21S,24R)-6,18-bis(4-((1-(cyclopropylmethyl)-1H-pyrazol-5-yl)methyl)benzyl)-3,9,15,21-tetraisobutyl-4,10,12,16,22,24-hexamethyl-1,7,13,19-tetraoxa-4,10,16,22-tetraazacyclotetracosan-2,5,8,11,14,17,20,23-octaone] | 0.01 | 0.001 | 10 | 1.8 | 1 to 3.3 | –
12 | COc1ccncc1Cc1ccc(C[C@H]2OC(=O)[C@H](CC(C)C)N(C)C(=O)[C@@H](C)OC(=O)[C@H](CC(C)C)N(C)C(=O)[C@@H](Cc3ccc(Cc4cnccc4OC)cc3)OC(=O)[C@H](CC(C)C)N(C)C(=O)[C@@H](C)OC(=O)[C@H](CC(C)C)N(C)C2=O)cc1 [Example 3-282, (3S,6R,9S,12R,15S,18R,21S,24R)-3,9,15,21-tetraisobutyl-6,18-bis(4-((4-methoxypyridin-3-yl)methyl)benzyl)-4,10,12,16,22,24-hexamethyl-1,7,13,19-tetraoxa-4,10,16,22-tetraazacyclotetracosan-2,5,8,11,14,17,20,23-octaone] | 0.005 | 0.001 | 5 | 30 | – | –
